According to patent US10780074B2, “Compounds and uses thereof” (Sunovion Pharmaceuticals Inc., priority 2017, dated 2020):
Counter-ions that a name gives are not always drawn. Like-named read-outs stand apart in the source and are kept apart here.

Tested on: behaviors of compound-treated mice
Assay: Neuropharmacological Assay (SmartCube)
Type: in vivo
Conditions: for minimal effective dose: Mus musculus, ip, 0.25 h, dose having 50% or more total activity in SmartCube, read-out: MED (minimal effective dose)
Source text: Neuropharmacological Assay (SmartCube™)
Neurosci. 2011 Sep. 9; 5:103 (doi: 10.3389/fnins.2011.00103) (“Roberds”). As reported in Roberds, because psychiatric diseases generally result from disorders of cell-cell communication or circuitry, intact systems are useful in detecting improvement in disease-relevant endpoints. These endpoints are typically behavioral in nature, often requiring human observation and interpretation. To facilitate testing of multiple compounds for behavioral effects relevant to psychiatric disease, PsychoGenics, Inc. (Tarrytown, N.Y., “PGI”) developed SmartCube™, an automated system in which behaviors of compound-treated mice are captured by digital video and analyzed with computer algorithms. (D. Brunner et al., Drug Discov. Today 2002, 7:S107-S112). PGI Analytical Systems uses data from SmartCube™ to compare the behavioral signature of a test compound to a database of behavioral signatures obtained using a large set of diverse reference compounds. (The composition of the database as well as validation of the method is further described in Roberds). In this way, the neuropharmacological effects of a test compound can be predicted by similarity to major classes of compounds, such as antipsychotics, anxiolytics and antidepressants.
The SmartCube™ system produces an activity signature indicating the probability that the activity of the test compound at the administered dose matches a given class of neuropharmacological agents. (See, e.g., Roberds, FIGS. 2 and 3). The test compound is simultaneously compared against multiple classes of agents; thus, a separate probability is generated for each behavioral effect measured (e.g., anxiolytic activity, analgesic activity, etc.). In the table below, these probabilities are reported for each behavioral effect measured as follows:
Provided compounds were dissolved in a mixture of Pharmasolve™ (N-methyl-2-pyrrolidone), polyethylene glycol and propylene glycol, and were injected i.p. 15 min. before the behavioral test. For each compound, injections were administered at 3 different doses. For each behavioral effect measured, results for the most efficacious dose(s) are presented. In the table below, DP: anti-depressant; AX: anxiolytic; SD: sedative hypnotic; PS: anti-psychotic; MS: mood stabilizer; AD: ADHD; CE: cognitive enhancer; AG: analgesic; UN: uncharacterized CNS activity.
The potency of many of the compounds in the table was also determined in the SmartCube™ system. Test compounds were routinely examined at dose levels of 0.3, 1, 3 10 and 30 mg per kg (mpk), although the dose range was increased or decreased if necessary to obtain a full dose response curve. A compound's minimal effective dose (MED) is a measure of the compounds potency. The MED was defined as the dose (in mpk) having 50% or more total activity in SmartCube.

[1] = SmartCube, i.p. 15 min before test, most efficacious dose(s)
[2] = i.p. 15 min before behavioral test, most efficacious dose(s) of 3 doses

| Compound | minimal effective dose | AD: ADHD (probability that activity matches class) [1] | AG: analgesic (probability that activity matches class) [1] | AX: anxiolytic (probability that activity matches class) [1] | CE: cognitive enhancer (probability that activity matches class) [1] | DP: anti-depressant (probability that activity matches class) [1] | MS: mood stabilizer (probability that activity matches class) [1] | PS: anti-psychotic (probability that activity matches class) [1] | SD: sedative hypnotic (probability that activity matches class) [1] | UN: uncharacterized CNS activity (probability that activity matches class) [1] | minimal effective dose (i.p.) | AD: ADHD (probability that activity matches class) [2] | AG: analgesic (probability that activity matches class) [2] | AX: anxiolytic (probability that activity matches class) [2] | CE: cognitive enhancer (probability that activity matches class) [2] | DP: anti-depressant (probability that activity matches class) [2] | MS: mood stabilizer (probability that activity matches class) [2] | PS: anti-psychotic (probability that activity matches class) [2] | SD: sedative hypnotic (probability that activity matches class) [2] | UN: uncharacterized CNS activity (probability that activity matches class) [2] |
| --- | --- | --- | --- | --- | --- | --- | --- | --- | --- | --- | --- | --- | --- | --- | --- | --- | --- | --- | --- | --- |
| NC[C@H]1OCCc2c1cccc2-n1cccn1 [Compound 189, (S)-(5-(1H-pyrazol-1-yl)isochroman-1-yl)methanamine hydrochloride salt] | 10 to 30 mg/kg | ++ (5% ≤ ++ <25%) | + (LOQ ≤ + <5%) | ++ (5% ≤ ++ <25%) | + (LOQ ≤ + <5%) | ++ (5% ≤ ++ <25%) | + (LOQ ≤ + <5%) | + (LOQ ≤ + <5%) | + (LOQ ≤ + <5%) | ++++ (50% ≤ ++++) | – | – | – | – | – | – | – | – | – | – |
| CNC[C@@H]1OCCc2c(-c3cncnc3)cccc21 (single isomer, unassigned) [Compound 29, hydrochloride salt] | – | – | – | – | – | – | – | – | – | – | > 30 mg/kg | + (LOQ ≤ + <5%) | + (LOQ ≤ + <5%) | + (LOQ ≤ + <5%) | + (LOQ ≤ + <5%) | + (LOQ ≤ + <5%) | + (LOQ ≤ + <5%) | + (LOQ ≤ + <5%) | + (LOQ ≤ + <5%) | + (LOQ ≤ + <5%) |
| NC[C@H]1OCCCc2c(-c3ccccn3)cccc21 [Compound 159, (S)-(6-(pyridin-2-yl)-1,3,4,5-tetrahydrobenzo[c]oxepin-1-yl)methanamine hydrochloride salt] | – | – | – | – | – | – | – | – | – | – | 10 to 30 mg/kg | + (LOQ ≤ + <5%) | + (LOQ ≤ + <5%) | + (LOQ ≤ + <5%) | + (LOQ ≤ + <5%) | + (LOQ ≤ + <5%) | + (LOQ ≤ + <5%) | + (LOQ ≤ + <5%) | + (LOQ ≤ + <5%) | + (LOQ ≤ + <5%) |
| CNC[C@H]1OCc2c(-c3ccncc3)cccc21 [Compound 40, (S)—N-Methyl-1-(4-(pyridin-4-yl)-1,3-dihydroisobenzofuran-1-yl)methanamine hydrochloride salt] | – | – | – | – | – | – | – | – | – | – | ≤ 3 mg/kg | ++ (5% ≤ ++ <25%) | ++++ (50% ≤ ++++) | ++ (5% ≤ ++ <25%) | ++ (5% ≤ ++ <25%) | ++++ (50% ≤ ++++) | + (LOQ ≤ + <5%) | + (LOQ ≤ + <5%) | + (LOQ ≤ + <5%) | + (LOQ ≤ + <5%) |
| NC[C@H]1OCCc2c(-c3cncs3)cccc21 (single isomer, unassigned) [Compound 71, hydrochloride salt] | – | – | – | – | – | – | – | – | – | – | ≤ 3 mg/kg | +++ (25% ≤ +++ <50%) | + (LOQ ≤ + <5%) | ++ (5% ≤ ++ <25%) | + (LOQ ≤ + <5%) | ++ (5% ≤ ++ <25%) | + (LOQ ≤ + <5%) | + (LOQ ≤ + <5%) | ++ (5% ≤ ++ <25%) | ++++ (50% ≤ ++++) |
| NC[C@@H]1OCCc2c(-c3cnoc3)cccc21 (single isomer, unassigned) [Compound 86, hydrochloride salt] | – | – | – | – | – | – | – | – | – | – | 3 to 10 mg/kg | + (LOQ ≤ + <5%) | + (LOQ ≤ + <5%) | ++ (5% ≤ ++ <25%) | ++ (5% ≤ ++ <25%) | ++ (5% ≤ ++ <25%) | + (LOQ ≤ + <5%) | ++ (5% ≤ ++ <25%) | + (LOQ ≤ + <5%) | +++ (25% ≤ +++ <50%) |
| CNC[C@@H]1OCCc2c(-c3cc(C)nc(C)c3)cccc21 [Compound 124, (R)-1-(5-(2,6-dimethylpyridin-4-yl)isochroman-1-yl)-N-methylmethanamine dihydrochloride] | – | – | – | – | – | – | – | – | – | – | 10 to 30 mg/kg | + (LOQ ≤ + <5%) | + (LOQ ≤ + <5%) | + (LOQ ≤ + <5%) | + (LOQ ≤ + <5%) | + (LOQ ≤ + <5%) | + (LOQ ≤ + <5%) | + (LOQ ≤ + <5%) | + (LOQ ≤ + <5%) | + (LOQ ≤ + <5%) |
| NC[C@H]1OCc2c(-c3ccncc3)cccc21 (single isomer, unassigned) [Compound 38, hydrochloride salt] | – | – | – | – | – | – | – | – | – | – | ≤ 3 mg/kg | ++ (5% ≤ ++ <25%) | ++ (5% ≤ ++ <25%) | +++ (25% ≤ +++ <50%) | + (LOQ ≤ + <5%) | ++++ (50% ≤ ++++) | + (LOQ ≤ + <5%) | + (LOQ ≤ + <5%) | ++ (5% ≤ ++ <25%) | ++ (5% ≤ ++ <25%) |
| NC[C@H]1OCCc2c(-c3ccon3)cccc21 (single isomer, unassigned) [Compound 89, hydrochloride salt] | – | – | – | – | – | – | – | – | – | – | ≤ 3 mg/kg | ++ (5% ≤ ++ <25%) | ++ (5% ≤ ++ <25%) | +++ (25% ≤ +++ <50%) | + (LOQ ≤ + <5%) | ++++ (50% ≤ ++++) | + (LOQ ≤ + <5%) | ++ (5% ≤ ++ <25%) | + (LOQ ≤ + <5%) | ++ (5% ≤ ++ <25%) |
